Measured values taken from ChEMBL document CHEMBL4138277, “Lipovelutibols A-D: Cytotoxic Lipopeptaibols from the Himalayan Cold Habitat Fungus Trichoderma velutinum” (J Nat Prod, 2018).
Non-standard residues stand in square brackets, D forms with d. Residues, ends and D or L forms follow the SMILES beside them. *: point of attachment. Leu(ol) = CC(C)C[C@H](N)CO; dIva = CC[C@@](C)(N)C(=O)O; Octanoyl = CCCCCCCC(=O)*; Aib = CC(C)(N)C(=O)O

Assays:
Assay type in all cases: functional, cell-based
MDA-MB-231 = assay: Cytotoxicity against human MDA-MB-231 cells after 48 hrs by MTT assay; settings: MDA-MB-231, 48 h
HL-60 = assay: Cytotoxicity against human HL60 cells after 48 hrs by MTT assay; settings: HL-60, 48 h
LS180 = assay: Cytotoxicity against human LS180 cells after 48 hrs by MTT assay; settings: LS180, 48 h
A549 = assay: Cytotoxicity against human A549 cells after 48 hrs by MTT assay; settings: A549, 48 h

| Structure (SMILES) | IC50 (MDA-MB-231) | IC50 (HL-60) | IC50 (LS180) | IC50 (A549) |
| --- | --- | --- | --- | --- |
| CCCCCCCC(=O)NCC(=O)N[C@@H](C)C(=O)N[C@@H](CC(C)C)C(=O)N[C@](C)(CC)C(=O)N[C@@H](CO)C(=O)N[C@H](C(=O)N[C@H](CO)CC(C)C)[C@@H](C)CC | 4 µM | 2 µM | > 30 µM | 30 µM |
| CCCCCCCC(=O)NCC(=O)N[C@@H](C)C(=O)N[C@@H](CC(C)C)C(=O)NC(C)(C)C(=O)N[C@@H](C)C(=O)N[C@H](C(=O)N[C@H](CO)CC(C)C)[C@@H](C)CC (Octanoyl-GAL[Aib]AI[Leu(ol)]) | 16 µM | 16 µM | > 30 µM | 17 µM |
| CCCCCCCC(=O)NCC(=O)N[C@@H](C)C(=O)N[C@@H](CC(C)C)C(=O)NC(C)(C)C(=O)N[C@@H](CO)C(=O)N[C@H](C(=O)N[C@H](CO)CC(C)C)[C@@H](C)CC (Octanoyl-GAL[Aib]SI[Leu(ol)]) | > 30 µM | > 30 µM | > 30 µM | 30 µM |
| CCCCCCCC(=O)NCC(=O)N[C@@H](C)C(=O)N[C@@H](CC(C)C)C(=O)N[C@](C)(CC)C(=O)N[C@@H](C)C(=O)N[C@H](C(=O)N[C@H](CO)CC(C)C)[C@@H](C)CC (Octanoyl-GAL[dIva]AI[Leu(ol)]) | 5 µM | 4 µM | 7 µM | 4 µM |
| CC(=O)O[C@H]1C(=O)[C@@]2(C)[C@H]([C@H](OC(=O)c3ccccc3)[C@]3(O)C[C@H](OC(=O)[C@H](O)[C@@H](NC(=O)c4ccccc4)c4ccccc4)C(C)=C1C3(C)C)[C@]1(OC(C)=O)CO[C@@H]1C[C@@H]2O [PACLITAXEL] | – | – | 0.0028 µM | – |
